# In PubChem BioAssay AID1919013 (Molecular Pharmacology Branch, DTP, NCI, 2023):
# System: LG0703-F498-PDC complex spheroid growth
# Assay: Anticancer human tumor LG0703-F498-PDC patient-derived lung adenocarcinoma cell line growth inhibition [AhR]
# Details: for IC50: curve of first compound; for viability, T/C: stronger effect = lower value
# Excerpt: Multicellular complex tumor spheroid response to aryl hydrocarbon receptor antagonists in combination with a variety of drugs and investigational agents in selected tumor cell lines
# The current study was undertaken to assess response to aryl hydrocarbon receptor antagonists in combination with standard-of-care drugs and investigational agents in solid tumor complex spheroid models. Complex spheroids include a stromal component modeled by human endothelial cells (HUVEC) and fibroblasts modeled by human mesenchymal stem cells (MSCs). The concentration ranges selected for each drug and investigational agent were based upon clinically achievable concentrations if the clinical Cmax of the agent was known.
# Compounds. The drugs and investigational agents: BAY 2416964 (NSC825713), GNF351 (NSC835774), CH-223191 (NSC835775), CPI-455 (NSC825282), aza-TdCyd (NSC777586), decitabine (NSC127716), belinostat (NSC758774), entinostat (NSC756642), pevonedistat (NSC761192), tazemetostat (NSC777109), talazoparib (NSC765396), olaparib (NSC753686), selinexor (NSC780203), nedisertib (M3814, NSC802822), bortezomib (NSC756655), venetoclax (NSC766270), doxorubicin (NSC123127), elimusertib (BAY189344, NSC800525), ceralasertib (AZD6738, NSC777638), TAK-243 (NSC785004), alisertib (NSC759677), etoposide (NSC141540), topotecan (NSC609699), eribulin (NSC707389), gemcitabine (NSC613327), carboplatin (NSC241240), cisplatin (NSC119875), and SN-38 (NSC673596) were obtained from the National Cancer Institute (NCI) Developmental Therapeutics Program Chemical Repository (32). The FDA-approved anticancer drug set is available from the Developmental Therapeutics Program at https://dtp.cancer.gov/organization/dscb/obtaining/available plates.htm. […] The stock solutions were prepared in dimethyl sulfoxide (DMSO, Sigma-Aldrich, St. Louis, MO, cat. D2650), except for the platinum compounds which were prepared in saline (Quality Biological, Gaithersburg, MD, cat. 114-055-101), at 800-fold the tested concentration and stored at -70 degrees C prior to their use. All drugs and investigational agents were tested over a range starting from a high concentration at or near the clinical Cmax and decreasing in half-log increments. If the clinical Cmax for an agent had not been determined, the highest concentration tested was 10 microM (Table 1).
# Cell Culture. All cells were maintained in an incubator at 37 degrees C and 5% CO2 with 95% humidity. The PDC lines were cultured according to standard operating procedures established by the NCI PDMR (https://pdmr.cancer.gov). Briefly, all PDCs were thawed and cultured in Matrigel-coated flasks prepared with a working solution of 1X Ham's F-12 nutrient mix, without supplementation (Invitrogen, Waltham, MA, cat. 11765054), 100 U/mL penicillin-streptomycin (Invitrogen, cat. 15140122), and 2.5% Matrigel (Corning Inc., Corning, NY, cat. 354248) for the first three passages. All PDCs were cultured in complete DMEM/F-12 media containing advanced DMEM/F-12 (Invitrogen, cat. 12634028), 4.9% defined fetal bovine serum, heat inactivated (HyClone Laboratories Inc., Logan, UT, cat. SH30070.03HI), 389 ng/mL hydrocortisone (Sigma-Aldrich, cat. H4001), 9.7 ng/mL human EGF recombinant protein (Invitrogen, cat. PHG0313), 23.4 microg/mL adenine (Sigma-Aldrich, cat. A2786), 97.3 U/mL penicillin-streptomycin (Invitrogen, cat. 15140122), 1.9 mM L-glutamine (Invitrogen, cat. 25030081), and 9.7 microM Y-27632 dihydrochloride (Tocris Bioscience, Bristol, United Kingdom, cat. 1254). The PDCs were cultured in complete DMEM/F12 media without 10 microM Y-27632 dihydrochloride for at least two passages prior to the screen. The established cell lines NCI-H1341 and […] were cultured in DMEM/F-12, HEPES (Invitrogen, cat. 11330032), 5% defined fetal bovine serum (HyClone Laboratories Inc., cat. SH30070.03), ITS premix universal culture supplement [insulin (5 microg/mL), transferrin (5 microg/mL), and selenious acid (5 ng/mL)] […]
# [1] = second compound 0.1 µM, first compound 0.0316 µM
# [2] = second compound 0.1 µM, first compound 0.1 µM
# [3] = second compound 0.1 µM, first compound 0.316 µM
# [4] = second compound 0.1 µM, first compound 1 µM
# [5] = second compound 0.316 µM, first compound 0.0316 µM
# [6] = second compound 0.316 µM, first compound 0.1 µM
# [7] = second compound 0.316 µM, first compound 0.316 µM
# [8] = second compound 0.316 µM, first compound 1 µM
# [9] = second compound 1 µM, first compound 0.0316 µM
# [10] = second compound 1 µM, first compound 0.1 µM
# [11] = second compound 1 µM, first compound 0.316 µM
# [12] = second compound 1 µM, first compound 1 µM
# [13] = second compound 3.16 µM, first compound 0.0316 µM
# [14] = second compound 3.16 µM, first compound 0.1 µM
# [15] = second compound 3.16 µM, first compound 0.316 µM
# [16] = second compound 3.16 µM, first compound 1 µM
# [17] = second compound 10 µM, first compound 0.0316 µM
# [18] = second compound 10 µM, first compound 0.1 µM
# [19] = second compound 10 µM, first compound 0.316 µM
# [20] = second compound 10 µM, first compound 1 µM
# 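Note: luminescence taken as a proxy for viable cell amount.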
# 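Throughout, for viability, T/C: percent of DMSO vehicle control where 100% means growth equal to vehicle.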
SMILES,IC50 (second compound 0.1 µM) [nM],IC50 (second compound 0.316 µM) [nM],IC50 (second compound 1 µM) [nM],IC50 (second compound 3.16 µM) [nM],IC50 (second compound 10 µM) [nM],"viability, T/C [1] [%]","viability, T/C [2] [%]","viability, T/C [3] [%]","viability, T/C [4] [%]","viability, T/C [5] [%]","viability, T/C [6] [%]","viability, T/C [7] [%]","viability, T/C [8] [%]","viability, T/C [9] [%]","viability, T/C [10] [%]","viability, T/C [11] [%]","viability, T/C [12] [%]","viability, T/C [13] [%]","viability, T/C [14] [%]","viability, T/C [15] [%]",further results
COc1cccc2c1C(=O)c1c(O)c3c(c(O)c1C2=O)CC(O)(C(=O)CO)CC3OC1CC(N)C(O)C(C)O1 (stereo not given) + CC(CO)NC(=O)c1cc(-c2ccc(Cl)cc2)nn(-c2cnn(C)c2)c1=O,770,523,547,459,360,82.7,80.6,72.2,43,84.3,84.2,58.4,36,86.7,89.6,61.6,34.7,82.7,84.8,59.3,"viability, T/C (second compound 0.1 µM, first compound 3.16 µM): 14.2%; viability, T/C (second compound 0.1 µM, first compound 10 µM): 1.2%; viability, T/C (second compound 0.316 µM, first compound 3.16 µM): 12.7%; viability, T/C (second compound 0.316 µM, first compound 10 µM): 0.83%; viability, T/C (second compound 1 µM, first compound 3.16 µM): 10%; viability, T/C (second compound 1 µM, first compound 10 µM): 0.76%; viability, T/C [16]: 27.4%; viability, T/C (second compound 3.16 µM, first compound 3.16 µM): 4.74%; viability, T/C (second compound 3.16 µM, first compound 10 µM): 1.92%; viability, T/C [17]: 71.3%; viability, T/C [18]: 73.8%; viability, T/C [19]: 54.1%; viability, T/C [20]: 13.9%; viability, T/C (second compound 10 µM, first compound 3.16 µM): 0.65%; viability, T/C (second compound 10 µM, first compound 10 µM): 0.96%"
Nc1ncn(C2CC(O)C(CO)O2)c(=O)n1 (stereo not given) + CC(CO)NC(=O)c1cc(-c2ccc(Cl)cc2)nn(-c2cnn(C)c2)c1=O,> 1000,> 1000,> 1000,> 1000,> 1000,84.8,91.1,85.9,78,82.2,87.5,79.2,76.5,78.5,79.5,71.7,77.4,88.4,67.9,80.5,"viability, T/C (second compound 0.1 µM, first compound 0.00316 µM): 85.3%; viability, T/C (second compound 0.1 µM, first compound 0.01 µM): 99.4%; viability, T/C (second compound 0.316 µM, first compound 0.00316 µM): 81.5%; viability, T/C (second compound 0.316 µM, first compound 0.01 µM): 91.9%; viability, T/C (second compound 1 µM, first compound 0.00316 µM): 83.5%; viability, T/C (second compound 1 µM, first compound 0.01 µM): 106%; viability, T/C (second compound 3.16 µM, first compound 0.00316 µM): 78.7%; viability, T/C (second compound 3.16 µM, first compound 0.01 µM): 80%; viability, T/C [16]: 71.8%; viability, T/C (second compound 10 µM, first compound 0.00316 µM): 87.4%; viability, T/C (second compound 10 µM, first compound 0.01 µM): 80.2%; viability, T/C [17]: 79.3%; viability, T/C [18]: 80.3%; viability, T/C [19]: 69.9%; viability, T/C [20]: 72.7%"
